# In the kinase profiling compilation of Christmann-Franck et al. (2016):
# Columns and labels:
# Assay in all cases: KINOMEscan competition binding
# Conditions in all cases: compound 10.0 µM
# [1] = biological target: CDK7 (human) (UniProt P50613)
# [2] = biological target: MAPK10 (human) (UniProt P53779)
# [3] = biological target: HIPK4 (human) (UniProt Q8NE63)
# [4] = biological target: AXL (human) (UniProt P30530)
# [5] = biological target: BRSK1 (human) (UniProt Q8TDC3)
# [6] = biological target: LTK (human) (UniProt P29376)
# [7] = biological target: ADCK3 (human) (UniProt Q8NI60)
# [8] = biological target: CLK1 (human) (UniProt P49759)
# [9] = biological target: PIK3CB (human) (UniProt P42338)
# [10] = biological target: FLT3 (human) (UniProt P36888)
# [11] = biological target: FYN (human) (UniProt P06241)
# [12] = biological target: PIP5K1C (human) (UniProt O60331)
# [13] = biological target: STK38 (human) (UniProt Q15208)
# [14] = tested on: KIT (human), P10721 [V559D]
# [15] = biological target: ROCK1 (human) (UniProt Q13464)
# ROCK1 (human), sequence (Q13464 whole entry, looked up): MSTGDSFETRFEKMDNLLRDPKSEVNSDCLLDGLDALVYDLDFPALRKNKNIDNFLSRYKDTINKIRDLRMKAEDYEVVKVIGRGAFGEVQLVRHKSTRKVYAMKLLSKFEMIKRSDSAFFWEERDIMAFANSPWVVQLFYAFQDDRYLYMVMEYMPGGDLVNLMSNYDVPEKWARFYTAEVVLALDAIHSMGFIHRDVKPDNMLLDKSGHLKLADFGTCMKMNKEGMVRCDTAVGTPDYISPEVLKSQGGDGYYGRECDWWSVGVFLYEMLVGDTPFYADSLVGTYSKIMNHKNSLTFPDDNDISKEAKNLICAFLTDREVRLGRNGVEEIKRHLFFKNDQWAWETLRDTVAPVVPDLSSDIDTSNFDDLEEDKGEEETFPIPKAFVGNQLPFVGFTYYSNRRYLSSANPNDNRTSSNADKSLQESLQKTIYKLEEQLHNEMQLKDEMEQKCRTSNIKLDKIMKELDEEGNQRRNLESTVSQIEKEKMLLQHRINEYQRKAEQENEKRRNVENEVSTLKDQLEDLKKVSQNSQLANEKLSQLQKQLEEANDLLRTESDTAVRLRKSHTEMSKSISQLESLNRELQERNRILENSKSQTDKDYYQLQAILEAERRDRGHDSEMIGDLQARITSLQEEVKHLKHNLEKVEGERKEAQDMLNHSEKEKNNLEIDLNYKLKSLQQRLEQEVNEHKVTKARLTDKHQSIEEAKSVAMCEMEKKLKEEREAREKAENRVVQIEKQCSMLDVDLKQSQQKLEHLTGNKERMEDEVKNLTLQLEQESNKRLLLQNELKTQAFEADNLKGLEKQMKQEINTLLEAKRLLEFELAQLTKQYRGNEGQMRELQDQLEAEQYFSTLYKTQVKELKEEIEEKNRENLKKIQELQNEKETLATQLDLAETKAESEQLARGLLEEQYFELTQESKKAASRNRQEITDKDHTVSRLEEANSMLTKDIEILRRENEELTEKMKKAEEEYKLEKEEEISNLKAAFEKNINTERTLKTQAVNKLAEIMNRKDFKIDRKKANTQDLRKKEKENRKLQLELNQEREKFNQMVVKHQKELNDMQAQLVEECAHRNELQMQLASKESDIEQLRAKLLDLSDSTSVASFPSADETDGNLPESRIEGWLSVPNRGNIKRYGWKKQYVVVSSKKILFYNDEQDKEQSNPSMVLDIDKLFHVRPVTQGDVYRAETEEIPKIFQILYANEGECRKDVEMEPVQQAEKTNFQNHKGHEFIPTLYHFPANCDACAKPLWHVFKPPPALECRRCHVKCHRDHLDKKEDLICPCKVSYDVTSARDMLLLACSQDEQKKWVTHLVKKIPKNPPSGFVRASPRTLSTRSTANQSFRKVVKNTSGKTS
# [16] = biological target: GSK3B (human) (UniProt P49841)
# [17] = biological target: STK17B (human) (UniProt O94768)
# [18] = biological target: TAOK3 (human) (UniProt Q9H2K8)
# [19] = biological target: RIOK3 (human) (UniProt O14730)
# [20] = biological target: CDK18 (human) (UniProt Q07002)
# [21] = biological target: SGK3 (human) (UniProt Q96BR1)
# [22] = biological target: CDK9 (human) (UniProt P50750)
# CDK9 (human), sequence (P50750 whole entry, looked up): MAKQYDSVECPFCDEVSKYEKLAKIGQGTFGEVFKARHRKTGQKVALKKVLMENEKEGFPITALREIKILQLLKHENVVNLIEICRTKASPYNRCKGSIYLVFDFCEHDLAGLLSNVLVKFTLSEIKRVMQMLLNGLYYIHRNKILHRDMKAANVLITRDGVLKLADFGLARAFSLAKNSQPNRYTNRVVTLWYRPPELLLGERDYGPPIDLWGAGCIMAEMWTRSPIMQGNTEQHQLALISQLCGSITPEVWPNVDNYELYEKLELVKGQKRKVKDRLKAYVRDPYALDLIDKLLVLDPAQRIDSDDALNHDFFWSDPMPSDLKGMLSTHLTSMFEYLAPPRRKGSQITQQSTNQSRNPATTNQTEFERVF
# [23] = biological target: JAK1 JH1 catalytic (human) (UniProt P23458)
# [24] = biological target: ERN1 (human) (UniProt O75460)
# [25] = biological target: MST4 (human) (UniProt Q9P289)
# [26] = biological target: BTK (human) (UniProt Q06187)
# [27] = biological target: EPHB2 (human) (UniProt P29323)
# [28] = biological target: CDC42BPB (human) (UniProt Q9Y5S2)
# CDC42BPB (human), sequence (Q9Y5S2 whole entry, looked up): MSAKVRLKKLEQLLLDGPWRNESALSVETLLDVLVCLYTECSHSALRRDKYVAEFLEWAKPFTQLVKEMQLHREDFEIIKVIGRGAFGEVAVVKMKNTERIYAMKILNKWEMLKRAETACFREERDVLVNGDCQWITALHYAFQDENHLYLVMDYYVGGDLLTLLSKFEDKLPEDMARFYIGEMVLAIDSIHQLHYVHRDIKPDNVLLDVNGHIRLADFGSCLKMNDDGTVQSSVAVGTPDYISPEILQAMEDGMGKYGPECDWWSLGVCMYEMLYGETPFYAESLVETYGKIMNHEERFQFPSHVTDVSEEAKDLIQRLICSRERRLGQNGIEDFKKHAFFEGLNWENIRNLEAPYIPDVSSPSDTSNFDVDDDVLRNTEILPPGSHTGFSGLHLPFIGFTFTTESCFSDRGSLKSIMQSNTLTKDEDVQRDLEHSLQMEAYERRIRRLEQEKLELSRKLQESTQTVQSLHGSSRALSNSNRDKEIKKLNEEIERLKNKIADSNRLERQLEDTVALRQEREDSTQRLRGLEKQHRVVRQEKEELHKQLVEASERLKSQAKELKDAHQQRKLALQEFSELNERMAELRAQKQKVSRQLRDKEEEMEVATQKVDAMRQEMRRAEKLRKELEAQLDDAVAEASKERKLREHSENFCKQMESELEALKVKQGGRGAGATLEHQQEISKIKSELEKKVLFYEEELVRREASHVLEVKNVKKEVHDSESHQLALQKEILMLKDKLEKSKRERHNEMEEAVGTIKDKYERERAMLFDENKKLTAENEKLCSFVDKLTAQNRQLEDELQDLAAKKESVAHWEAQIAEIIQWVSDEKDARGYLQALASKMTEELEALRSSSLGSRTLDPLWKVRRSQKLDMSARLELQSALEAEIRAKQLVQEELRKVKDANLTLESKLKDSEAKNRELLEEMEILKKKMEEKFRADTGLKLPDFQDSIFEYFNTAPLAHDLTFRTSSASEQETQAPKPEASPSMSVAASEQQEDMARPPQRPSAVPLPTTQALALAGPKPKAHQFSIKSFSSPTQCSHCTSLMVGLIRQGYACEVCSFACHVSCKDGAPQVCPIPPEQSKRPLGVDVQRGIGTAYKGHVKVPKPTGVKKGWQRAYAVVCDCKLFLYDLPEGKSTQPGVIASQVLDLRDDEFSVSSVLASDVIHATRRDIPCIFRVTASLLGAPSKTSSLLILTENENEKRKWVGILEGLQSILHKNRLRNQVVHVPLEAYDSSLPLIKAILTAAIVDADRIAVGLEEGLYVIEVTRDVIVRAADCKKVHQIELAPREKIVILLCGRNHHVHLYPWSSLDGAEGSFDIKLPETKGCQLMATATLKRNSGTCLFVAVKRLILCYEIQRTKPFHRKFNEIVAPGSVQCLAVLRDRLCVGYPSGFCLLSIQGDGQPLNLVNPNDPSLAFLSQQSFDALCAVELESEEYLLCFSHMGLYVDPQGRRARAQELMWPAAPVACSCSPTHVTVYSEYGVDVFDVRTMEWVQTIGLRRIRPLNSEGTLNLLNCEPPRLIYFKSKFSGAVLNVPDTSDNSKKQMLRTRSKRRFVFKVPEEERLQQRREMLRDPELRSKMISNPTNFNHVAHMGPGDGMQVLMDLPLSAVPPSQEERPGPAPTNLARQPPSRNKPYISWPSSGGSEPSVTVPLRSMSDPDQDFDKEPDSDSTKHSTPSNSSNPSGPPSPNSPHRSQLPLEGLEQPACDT
# [29] = biological target: PAK2 (human) (UniProt Q13177)
# [30] = biological target: PKN2 (human) (UniProt Q16513)
# [31] = biological target: TNK1 (human) (UniProt Q13470)
# TNK1 (human), sequence (Q13470 whole entry, looked up): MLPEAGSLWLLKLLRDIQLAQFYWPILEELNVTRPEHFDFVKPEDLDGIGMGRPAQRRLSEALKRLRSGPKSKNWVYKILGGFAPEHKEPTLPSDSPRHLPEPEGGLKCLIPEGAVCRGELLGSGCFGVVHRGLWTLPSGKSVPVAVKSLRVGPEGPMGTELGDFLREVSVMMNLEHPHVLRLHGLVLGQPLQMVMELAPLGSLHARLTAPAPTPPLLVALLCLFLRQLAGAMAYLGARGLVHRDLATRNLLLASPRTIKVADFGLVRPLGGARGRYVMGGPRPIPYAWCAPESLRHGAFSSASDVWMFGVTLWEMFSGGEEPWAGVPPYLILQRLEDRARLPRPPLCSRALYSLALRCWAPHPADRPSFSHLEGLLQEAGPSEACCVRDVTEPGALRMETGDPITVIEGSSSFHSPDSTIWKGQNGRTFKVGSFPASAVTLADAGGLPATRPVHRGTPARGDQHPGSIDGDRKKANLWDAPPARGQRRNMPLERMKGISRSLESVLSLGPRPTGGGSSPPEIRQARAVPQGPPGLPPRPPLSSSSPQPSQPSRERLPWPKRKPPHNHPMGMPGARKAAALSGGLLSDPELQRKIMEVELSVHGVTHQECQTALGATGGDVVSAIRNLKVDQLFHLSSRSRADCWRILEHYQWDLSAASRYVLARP
# [32] = biological target: SRPK2 (human) (UniProt P78362)
# [33] = biological target: MAP3K11 (human) (UniProt Q16584)
# [34] = biological target: SRPK3 (human) (UniProt Q9UPE1)
# [35] = biological target: MARK1 (human) (UniProt Q9P0L2)
# [36] = biological target: MELK (human) (UniProt Q14680)
# [37] = biological target: FGFR1 (human) (UniProt P11362)
# [38] = biological target: NEK3 (human) (UniProt P51956)
# [39] = tested on: FLT3 (human), P36888 [D835H]
# [40] = biological target: MAP3K10 (human) (UniProt Q02779)
# MAP3K10 (human), sequence (Q02779 whole entry, looked up): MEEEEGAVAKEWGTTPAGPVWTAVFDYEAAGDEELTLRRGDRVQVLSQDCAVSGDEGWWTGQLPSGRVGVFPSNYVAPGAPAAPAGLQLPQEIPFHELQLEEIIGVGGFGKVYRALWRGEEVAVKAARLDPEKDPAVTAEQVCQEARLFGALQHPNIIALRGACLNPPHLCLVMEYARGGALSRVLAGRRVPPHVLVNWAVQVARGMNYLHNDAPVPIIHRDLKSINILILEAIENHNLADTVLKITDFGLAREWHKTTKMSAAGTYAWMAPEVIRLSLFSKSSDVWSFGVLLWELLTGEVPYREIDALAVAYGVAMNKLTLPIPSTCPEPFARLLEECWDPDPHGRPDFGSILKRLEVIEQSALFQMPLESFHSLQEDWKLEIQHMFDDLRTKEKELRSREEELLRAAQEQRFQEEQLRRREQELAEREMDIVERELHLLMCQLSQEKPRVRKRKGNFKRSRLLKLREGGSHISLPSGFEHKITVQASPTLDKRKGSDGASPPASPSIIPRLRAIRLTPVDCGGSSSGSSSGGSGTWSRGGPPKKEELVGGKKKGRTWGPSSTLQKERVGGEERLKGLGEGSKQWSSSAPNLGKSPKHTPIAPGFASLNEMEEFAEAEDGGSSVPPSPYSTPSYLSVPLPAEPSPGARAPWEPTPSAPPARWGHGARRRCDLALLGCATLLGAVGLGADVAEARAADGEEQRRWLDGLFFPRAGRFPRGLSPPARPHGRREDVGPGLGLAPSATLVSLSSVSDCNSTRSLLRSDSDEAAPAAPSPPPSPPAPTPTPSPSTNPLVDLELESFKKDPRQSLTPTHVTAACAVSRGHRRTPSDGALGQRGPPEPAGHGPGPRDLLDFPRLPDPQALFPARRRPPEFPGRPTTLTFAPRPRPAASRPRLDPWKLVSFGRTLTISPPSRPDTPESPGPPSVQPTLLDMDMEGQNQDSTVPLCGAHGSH
# [41] = tested on: PIK3CA (human), P42336 [E545A]
Compound,per cent of control [1] [%],"kinase still bound, per cent of control [2] [%]","kinase still bound, per cent of control [3] [%]","kinase still bound, per cent of control [4] [%]","kinase still bound, per cent of control [5] [%]","kinase still bound, per cent of control [6] [%]","kinase still bound, per cent of control [7] [%]","kinase still bound, per cent of control [8] [%]","kinase still bound, per cent of control [9] [%]","kinase still bound, per cent of control [10] [%]","kinase still bound, per cent of control [11] [%]","kinase still bound, per cent of control [12] [%]","kinase still bound, per cent of control [13] [%]","kinase still bound, per cent of control [14] [%]","kinase still bound, per cent of control [15] [%]","kinase still bound, per cent of control [16] [%]","kinase still bound, per cent of control [17] [%]","kinase still bound, per cent of control [18] [%]","kinase still bound, per cent of control [19] [%]",per cent of control [20] [%],also measured
CC(C)n1nc(-c2cc3cc(O)ccc3[nH]2)c2c(N)ncnc21,30,72,27,21,1.6,16,57,14,0,40,4.6,9.8,60,0.3,61,91,40,4.7,83,100,"kinase still bound, per cent of control [21]: 81%; per cent of control [22]: 96%; kinase still bound, per cent of control [23]: 11%; kinase still bound, per cent of control [24]: 31%; kinase still bound, per cent of control [25]: 31%; kinase still bound, per cent of control [26]: 22%; kinase still bound, per cent of control [27]: 32%; kinase still bound, per cent of control [28]: 71%; kinase still bound, per cent of control [29]: 31%; kinase still bound, per cent of control [30]: 86%; kinase still bound, per cent of control [31]: 34%; kinase still bound, per cent of control [32]: 100%; kinase still bound, per cent of control [33]: 79%; kinase still bound, per cent of control [34]: 83%; kinase still bound, per cent of control [35]: 81%; kinase still bound, per cent of control [36]: 10%; kinase still bound, per cent of control [37]: 8.5%; kinase still bound, per cent of control [38]: 55%; kinase still bound, per cent of control [39]: 7.4%; kinase still bound, per cent of control [40]: 53%"
CCC(=O)N1CCN(c2ccc(-n3c(=O)ccc4cnc5ccc(-c6cnc7ccccc7c6)cc5c43)cc2C(F)(F)F)CC1,57,31,4.6,46,78,77,17,49,65,16,49,80,100,50,53,100,67,76,90,97,"kinase still bound, per cent of control [21]: 100%; per cent of control [22]: 94%; kinase still bound, per cent of control [23]: 82%; kinase still bound, per cent of control [41]: 1%; kinase still bound, per cent of control [24]: 100%; kinase still bound, per cent of control [25]: 89%; kinase still bound, per cent of control [27]: 100%; kinase still bound, per cent of control [28]: 3.4%; kinase still bound, per cent of control [29]: 100%; kinase still bound, per cent of control [30]: 65%; kinase still bound, per cent of control [31]: 6.8%; kinase still bound, per cent of control [32]: 100%; kinase still bound, per cent of control [33]: 69%; kinase still bound, per cent of control [35]: 100%; kinase still bound, per cent of control [36]: 50%; kinase still bound, per cent of control [37]: 96%; kinase still bound, per cent of control [38]: 100%; kinase still bound, per cent of control [39]: 18%; kinase still bound, per cent of control [40]: 99%"
